ChEMBL document CHEMBL1126959, “HMG-CoA reductase inhibitors: design, synthesis, and biological activity of tetrahydroindazole-substituted 3,5-dihydroxy-6-heptenoic acid sodium salts” (J Med Chem, 1993)
One block for each molecule: values may come before it.

Columns and labels:
[1] = target: T1, 3-hydroxy-3-methylglutaryl-coenzyme A reductase (Rattus norvegicus, UniProt P51639); assay: Inhibitory activity against partially purified rat liver HMG-CoA reductase in vitro; 1.9-5.3
T1 sequence (P51639 whole entry): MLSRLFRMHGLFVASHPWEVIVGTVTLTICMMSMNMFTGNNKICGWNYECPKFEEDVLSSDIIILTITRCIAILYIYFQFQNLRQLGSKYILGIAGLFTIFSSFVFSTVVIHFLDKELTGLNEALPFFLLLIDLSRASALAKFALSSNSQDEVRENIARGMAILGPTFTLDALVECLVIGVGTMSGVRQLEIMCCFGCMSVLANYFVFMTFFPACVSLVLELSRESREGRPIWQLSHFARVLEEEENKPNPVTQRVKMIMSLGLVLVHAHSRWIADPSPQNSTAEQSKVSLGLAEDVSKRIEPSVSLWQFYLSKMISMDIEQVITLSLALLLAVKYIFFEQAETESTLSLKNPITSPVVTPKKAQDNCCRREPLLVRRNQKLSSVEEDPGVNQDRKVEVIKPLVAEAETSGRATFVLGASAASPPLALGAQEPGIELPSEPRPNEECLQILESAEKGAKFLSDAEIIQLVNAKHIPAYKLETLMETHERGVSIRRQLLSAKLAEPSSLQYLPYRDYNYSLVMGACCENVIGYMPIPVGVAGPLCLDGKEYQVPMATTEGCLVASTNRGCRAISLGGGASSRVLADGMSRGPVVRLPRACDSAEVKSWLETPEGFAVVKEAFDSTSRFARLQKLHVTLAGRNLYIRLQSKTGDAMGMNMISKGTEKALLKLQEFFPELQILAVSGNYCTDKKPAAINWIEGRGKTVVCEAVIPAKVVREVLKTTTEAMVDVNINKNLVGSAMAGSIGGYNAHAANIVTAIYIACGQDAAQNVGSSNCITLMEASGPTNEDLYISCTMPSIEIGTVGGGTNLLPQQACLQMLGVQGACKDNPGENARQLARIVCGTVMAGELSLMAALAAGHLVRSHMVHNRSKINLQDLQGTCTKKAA

[2] = target: T1, 3-hydroxy-3-methylglutaryl-coenzyme A reductase; assay: Inhibitory activity against partially purified rat liver HMG-CoA reductase in vitro; 3.1-9.1
[3] = target: T1, 3-hydroxy-3-methylglutaryl-coenzyme A reductase; assay: Inhibitory activity against partially purified rat liver HMG-CoA reductase in vitro; 0.047-0.098
[4] = tested on: HepG2; assay: Tested for ability to inhibit incorporation of [14C]acetate into cholesterol in cultured human hepatoma (HEP-G2) cells; 0.11-0.27; assay type: functional, cell-based
[5] = target: T1, 3-hydroxy-3-methylglutaryl-coenzyme A reductase; assay: Inhibitory activity against partially purified rat liver HMG-CoA reductase in vitro; 0.021-0.036
[6] = tested on: HepG2; assay: Tested for ability to inhibit incorporation of [14C]acetate into cholesterol in cultured human hepatoma (HEP-G2) cells; 0.26-0.80; assay type: functional, cell-based
[7] = target: T1, 3-hydroxy-3-methylglutaryl-coenzyme A reductase; assay: Inhibitory activity against partially purified rat liver HMG-CoA reductase in vitro; 3.8-19
[8] = target: T1, 3-hydroxy-3-methylglutaryl-coenzyme A reductase; assay: Inhibitory activity against partially purified rat liver HMG-CoA reductase in vitro; 1.7-2.6
[9] = target: T1, 3-hydroxy-3-methylglutaryl-coenzyme A reductase; assay: Inhibitory activity against partially purified rat liver HMG-CoA reductase in vitro; 4.1-22
[10] = tested on: HepG2; assay: Tested for ability to inhibit incorporation of [14C]acetate into cholesterol in cultured human hepatoma (HEP-G2) cells; 0.16-0.68; assay type: functional, cell-based
[11] = target: T1, 3-hydroxy-3-methylglutaryl-coenzyme A reductase; assay: Inhibitory activity against partially purified rat liver HMG-CoA reductase in vitro; 0.026-0.34
[12] = tested on: HepG2; assay: Tested for ability to inhibit incorporation of [14C]acetate into cholesterol in cultured human hepatoma (HEP-G2) cells; 2.9-4.6; assay type: functional, cell-based
[13] = target: T1, 3-hydroxy-3-methylglutaryl-coenzyme A reductase; assay: Inhibitory activity against partially purified rat liver HMG-CoA reductase in vitro; 0.17-0.61
[14] = tested on: HepG2; assay: Tested for ability to inhibit incorporation of [14C]acetate into cholesterol in cultured human hepatoma (HEP-G2) cells; 0.22-0.48; assay type: functional, cell-based
[15] = target: T1, 3-hydroxy-3-methylglutaryl-coenzyme A reductase; assay: Inhibitory activity against partially purified rat liver HMG-CoA reductase in vitro; 0.0050-0.016
[16] = target: T1, 3-hydroxy-3-methylglutaryl-coenzyme A reductase; assay: Inhibitory activity against partially purified rat liver HMG-CoA reductase in vitro; 1.8-3.7
[17] = target: T1, 3-hydroxy-3-methylglutaryl-coenzyme A reductase; assay: Inhibitory activity against partially purified rat liver HMG-CoA reductase in vitro; 0.73-10
[18] = tested on: HepG2; assay: Tested for ability to inhibit incorporation of [14C]acetate into cholesterol in cultured human hepatoma (HEP-G2) cells; 0.73-91; assay type: functional, cell-based
[19] = tested on: HepG2; assay: Tested for ability to inhibit incorporation of [14C]acetate into cholesterol in cultured human hepatoma (HEP-G2) cells; 0.15-1.7; assay type: functional, cell-based
[20] = target: T1, 3-hydroxy-3-methylglutaryl-coenzyme A reductase; assay: Inhibitory activity against partially purified rat liver HMG-CoA reductase in vitro; 0.015-0.51
[21] = tested on: HepG2; assay: Tested for ability to inhibit incorporation of [14C]acetate into cholesterol in cultured human hepatoma (HEP-G2) cells; 0.053-0.12; assay type: functional, cell-based
[22] = target: T1, 3-hydroxy-3-methylglutaryl-coenzyme A reductase; assay: Inhibitory activity against partially purified rat liver HMG-CoA reductase in vitro; 0.23-0.71
[23] = tested on: HepG2; assay: Tested for ability to inhibit incorporation of [14C]acetate into cholesterol in cultured human hepatoma (HEP-G2) cells; 0.061-0.10; assay type: functional, cell-based

Compound: O=C(O)C[C@H](O)C[C@H](O)/C=C/c1c2c(nn1-c1ccc(F)cc1)CCCC2
IC50 [2]: 5300 nM

Compound: O=C(O)C[C@H](O)C[C@H](O)/C=C/c1c2c(nn1-c1ccc(F)cc1)C(C1CCCCC1)CCC2 (stereo partly drawn)
IC50 [7]: 8500 nM

Compound: O=C(O)C[C@H](O)C[C@H](O)/C=C/c1c2c(nn1-c1ccc(F)cc1)-c1ccccc1CC2
IC50 [9]: 9400 nM

Compound: O=C(O)C[C@H](O)C[C@H](O)/C=C/c1c2c(nn1-c1ccc(F)cc1)-c1ccccc1CCC2
IC50 [16]: 2600 nM

Compound: CC(C)n1c(/C=C/C(O)CC(O)CC(=O)O)c(-c2ccc(F)cc2)c2ccccc21 (stereo not drawn) [FLUVASTATIN SODIUM]
IC50 [21]: 79 nM

Compound: CC[C@H](C)C(=O)O[C@H]1C[C@@H](C)C=C2C=C[C@H](C)[C@H](CC[C@@H]3C[C@@H](O)CC(=O)O3)[C@H]21 [LOVASTATIN]
IC50 [22]: 400 nM
IC50 [23]: 79 nM

More lines, now with the values ahead:

IC50 [1]: 3200 nM
Compound: CCC(C)C1CCCc2c1nn(-c1ccc(F)cc1)c2/C=C/[C@@H](O)C[C@@H](O)CC(=O)O (stereo partly drawn)

IC50 [3]: 68 nM
IC50 [4]: 170 nM
Compound: O=C(O)C[C@H](O)C[C@H](O)/C=C/c1c2c(nn1-c1ccc(F)cc1)C(Cc1ccccc1)CCC2 (stereo partly drawn)

IC50 [5]: 28 nM
IC50 [6]: 460 nM
Compound: O=C(O)C[C@H](O)C[C@H](O)/C=C/c1c2c(nn1-c1ccc(F)cc1)C(Cc1cccc3ccccc13)CCC2 (stereo partly drawn)

IC50 [8]: 2100 nM
Compound: CC1CCCc2c1nn(-c1ccc(F)cc1)c2/C=C/[C@@H](O)C[C@@H](O)CC(=O)O (stereo partly drawn)

IC50 [10]: 330 nM
IC50 [11]: 95 nM
Compound: O=C(O)C[C@H](O)C[C@H](O)/C=C/c1c2c(nn1-c1ccc(F)cc1)C(Cc1ccccc1Cl)CCC2 (stereo partly drawn)

IC50 [12]: 3600 nM
IC50 [13]: 320 nM
Compound: COc1ccc(CC2CCCc3c2nn(-c2ccc(F)cc2)c3/C=C/[C@@H](O)C[C@@H](O)CC(=O)O)cc1OC (stereo partly drawn)

IC50 [14]: 330 nM
IC50 [15]: 9 nM
Compound: O=C(O)C[C@H](O)C[C@H](O)/C=C/c1c2c(nn1-c1ccc(F)cc1)C(Cc1ccc3ccccc3c1)CCC2 (stereo partly drawn)

IC50 [17]: 2800 nM
IC50 [18]: 8100 nM
Compound: O=C(O)C[C@H](O)C[C@H](O)/C=C/c1c2c(nn1-c1ccc(F)cc1)C(c1ccccc1)CCC2 (stereo partly drawn)

IC50 [19]: 500 nM
IC50 [20]: 28 nM
Compound: COc1ccc(CC2CCCc3c2nn(-c2ccc(F)cc2)c3/C=C/[C@@H](O)C[C@@H](O)CC(=O)O)cc1 (stereo partly drawn)
